Measured values taken from patent US8551470B2, “Use of substance P for mobilization of Mesenchymal stem cells or proliferation of Mesenchymal stem cells and for wound healing or facilitating wound healing” (Korea Institute of Radiological & Medical Sciences, priority 2004, dated 2013).

Tests used:
human MSCs [1] = test: MSC migration and collagen degradation on 3-D collagen gel; format: cell-based; conditions: human MSCs on 3-D collagen gel, Substance-P in bottom dishes (0-100 nM), 72 h
From the text: In order to determine the mechanism of Substance-P in the mobilization of MSCs, which are strongly attached onto the endosteal surface of bone marrow, Substance-P was first examined to determine whether it stimulates migration of human MSCs cultured on top of the 3-D collagen gel. The type I collagen gel matrix was made within a 12 mm millicell membrane (milipore: 12-μm pore size) according to the manufacturer's specifications (Nitta gelatin, Japan) and coated overnight with type IV collagen (Nitta). The MSCs were plated on top of the collagen gel, and the outer chamber was filled with Substance-P-containing MSCGM (Cambrex Bio Science). Clearance of the collagen gel was monitored by using the phase contrast microscopy (Olympus). At 72 h, the millicell insert and outer dishes were fixed and stained with hematoxylin, and then the culture supernatants were stored for gelatin zymography.

VEGF and fibronectin = test: ELISA and Western blot analysis of VEGF and fibronectin in MSC culture supernatants; format: cell-based, human
Method: ELISA and Western blot analysis of fibronectin and VEGF, which are down stream genes of Tcf/β-catenin, were carried out.

human MSCs [2] = test: Viable cell count (triphan blue exclusion) of MSCs after Substance-P treatment; format: cell-based; conditions: 3 day
From the text: At 3 day after the treatment of Substance-P, the triphan blue excluded viable cells were counted.

β-catenin = test: Immunofluorescence staining of β-catenin localization in MSCs; format: cell-based; conditions: human MSCs, 100 nM
Method: In order to determine whether Substance-P affects the self-renewal capacity of human MSCs, β-catenin, which is the downstream effecter of the wnt signaling pathway, was examined. MSCs (Cambrex Bio Science) were plated in the density of 1×10^4/well, and incubated with MSCGM (Cambrex Bio Science). After adhesion of the cells, they were treated with Substance-P in each concentration, and incubated for 16 h and 48 h. The MSCs were fixed with 4% of paraformaldehyde and permeabilized with 0.3% of Triton X-100. After blocking nonspecific antigen with 20% normal goat serum which was diluted in phosphate buffer for 1 h, the coverslips were incubated with antibodies against β-catenin (BD Biosciencs; Cat #6010153, 1:100) for 90 min, and then with the FITC-conjugated secondary antibodies for 60 min(Vector). The cells were counterstained with DAPI, and examined by using confocal microscopy (Leica).

[3] = system: MMP-1, MMP-2, MMP-9, MT1-MMP, TIMP-1, TIMP-2; test: Immunoprecipitation of 35S-methionine labeled MMPs and TIMPs from MSCs; format: cell-based; conditions: human MSCs, Substance-P 0-100 nM, 35S-methionine labeling 16 h
Method: The effect of Substance-P on the biosynthesis of MMPs (matrix metalloproteinases) and their inhibitors was examined by immunoprecipitation of the culture medium and the cell lysates of MSCs which were labeled with ^35S-methionine. The MSCs were treated with Substance-P and labeled with 50 μCi/ml ^35S-methionine (Amersham) for 16 h. The cell lysate was prepared with a lysis buffer (1% of NP40, 10 mM Tris-HCl, pH 7.4, 150 mM NaCl, 1 mM EDTA, 2 mM PMSF). For immunoprecipitation of the secreted MMP-1, MMP-2, MMP-9, TIMP-1 and TIMP-2, the culture supernatants were incubated with their specific antibodies [anti-MMP-1 (chemicon; Cat #MAB3307, 1:100), anti-MMP-2 (Chemicon; Cat #MAB13405, 1:200), anti-MMP-9 (Calbiochem; Cat #444236, 1:100), anti-TIMP-1 (Calbiochem; Cat #IM32L, 1:250) and anti-TIMP-2 (Calbiochem; Cat #IM11L, 1:250)] for 2 h under constant rotation, and the antibodies were collected by protein-G sepharose-4B (Biorad). The pellet was washed three times with an immunoprecipitation buffer ([…], 50 mM Tris-HCl pH 7.4, 0.2% SDS and 0.5% Nadeoxycholate), once with a high salt buffer (10 mM Tris-HCl, pH 7.4, 0.5 M NaCl), and once with a low salt buffer (10 mM Tris-HCl, pH 7.4). After SDS-PAGE, the gel was soaked in 2 M sodium salicylate, dried, and exposed to the X-ray film for 2 weeks. […]

MMP-9 and MMP-2 = test: Gelatin zymography of MSC culture supernatants; format: cell-based; conditions: culture medium of human MSCs on 3-D collagen gel, Substance-P 0-100 nM
Method: The culture supernatants were examined for gelatin zymography. The eletrophoresis was performed for the culture supernatant in which sample buffer without mercaptoethanol was added thereto, in 8% SDS-PAGE. The gel was renatured with 2.5% of Triton x-100 in order to remove the SDS, and then was incubated with a developing buffer (50 mM Tris-HCl, pH 7.2 100 mM NaCl, 20 mM CaCl2) at 37° C. overnight, and the gel was stained with Coomassie blue.

cornea wound = test: Corneal alkali burn rabbit model with intravenous injection of Substance-P; format: in vivo
From the text: New Zealand white rabbits weighing 2-3 kg were purchased from Samtako BioKorea. All these animal experiments were approved by Ethical Committee, Korea Institute of Radiological and Medical Sciences, and Chung-Ang University, and conducted in accordance with the ARVO Statement for the Use of Animal in Ophthalmic and Vision Research. For the alkali burn, the rabbit eyes were placed in contact with a 6 mm piece of circular Whatman filter paper soaked in 1N NaOH for 30 seconds. At 1, 3, 5, 7, 10 and 14 day after the alkali burn, rabbit eyes and whole blood were isolated.
Thus, it was examined whether or not Substance-P only can stimulate corneal wound healing. To estimate the effect of Substance-P intravenous injection on acceleration of the wound healing, Substance-P at dosage 6.5 ug/kg was intravenously injected firstly immediately after the injury, and then secondly on 2nd day after the wound. At day 7 after the intravenous injection, cornea recovery was estimated by naked eyes with taking digital picture. […] The intravenous injection of Substance-P strongly expedited the cornea healing as shown by clearance of corneal opaqueness and disappearance of hemorrhagic area, compared with the non-injected control rabbit.
To observe the wound healing degree in the histological level, rabbit eyes were isolated and fixed, and then, H&E staining and immunostaining for CD29 were carried out.

[4] = Substance-P 6.5 ug/kg i.v. twice, vs non-injected

Substance: Substance-P
- degradation of the collagen gel and MSC migration (human MSCs [1]): stimulated degradation of the collagen gel and MSC migration in a dose dependent manner
- fibronectin induction (Western blot) (VEGF and fibronectin; culture supernatant of Substance-P treated human MSCs): induced
- VEGF induction (ELISA) (VEGF and fibronectin; culture supernatants of Substance-P treated human MSCs): induced
- number of viable cells compared with the control group (human MSCs [2]; 1 nM Substance-P): 1.7 times
- number of viable cells compared with the control group (human MSCs [2]; 10 nM Substance-P): 2.1 times
- number of viable cells compared with the control group (human MSCs [2]; 100 nM Substance-P): 2.2 times
- nuclear localization of β-catenin (β-catenin; 16 h after Substance-P treatment): only a small number of MSCs at 100 nM showed nuclear localization of β-catenin
- nuclear translocation of β-catenin (β-catenin; 48 h after Substance-P treatment): all the MSCs showed nuclear translocation of β-catenin
- biosynthesis of MMP-1, MMP-2, MMP-9, and MT1-MMP [3]: stimulated in a dose dependent manner
- biosynthesis of inhibitors TIMP-1 and TIMP-2 [3]: inhibited
- MMP-9 and MMP-2 activities (gelatin zymography) (MMP-9 and MMP-2): strong induction of MMP-9 and MMP-2 activities
- corneal regeneration (naked eye, digital picture) (cornea wound; Substance-P 6.5 ug/kg i.v. immediately after injury and on 2nd day, day 7, vs non-injected control): much faster
- CD29 immunostaining of cornea (cornea wound; [4]): CD 29+cells of small and spindle shape inside of collagen fibers
- wound healing degree in histology (H&E staining) (cornea wound; [4]): full thickness coverage of epithelium, well organized vasculature, and ordered array of dense collagen bundles
- healing rate (histological observation during the entire period) (cornea wound; Substance-P i.v. vs control group): speeded up the healing rate faster than the control group
